Patent publication US9144613B2, “Halogenated phenols for diagnostics, antioxidant protection and drug delivery” (priority 2012, dated 2015)
Blank lines part the entries; values can stand above or below the molecule they belong to.

Key:
spontaneous tumors = conditions: 10 mg by gavage; X-ray imaging about two hours after; mice showing spontaneous tumors; control images of same mice prior to treatment did not show foci
Source text: As described above, oxidative foci or tumors may be identified by X-ray radiographic imaging of animals following administration of an indigogenic compound of the present invention. The radio-opaque indigo-like product formed and deposited with residence time in FROS-containing tumor tissues may then be detected.
In this example, female C3H/HeN mice were obtained as multiparous retired breeders (i.e., after 3 to 4 litters) that were positive for a mammary tumor virus. See, e.g., Sellitti, D. F., Tseng, Y-C., and Latham, K. R., “Effect of 3,5,3′-Triiodo-L-thyronine on the Incidence and Growth Kinetics of Spontaneous Mammary Tumors in C3H/HeN Mice,” Cancer Research, 41: 5015-19 (1981), the entire contents and disclosure of which are incorporated herein by reference. Mice showing spontaneous tumors were given 10 mg of 5-Iodo-Indoxyl-3′,5′-Diiodo-4′-hydroxy ether substrate (product of Example 4) by gavage. These mice were then subjected to X-ray imaging of the tumors about two hours after being fed the iodo-indigogenic compound. […] When developed, the X-ray film appears dark in areas where more transmission occurs and light in areas where less transmission occurs.

[1] = tested on: sites of the wound or injury; conditions: mice with small injuries or wounds (cuts, scratches); data not shown
[2] = Cleavage of the C—C bond during the oxidative dehalogenation reaction; type: physicochemical
Source text: It has also been discovered that other types of bonds or linkages may also be cleaved by oxidative or free radical-mediated dehalogenation of the phenol ring. For example, as described herein, it has now been observed that a carbonyl linkage, a nitrogen linkage, a sulfinyl linkage and possibly a C—C bond on the phenol ring may also be cleaved by the oxidative dehalogenation reaction. These bonds are also considered stable, and their cleavage in connection with the dehalogenation reaction is surprising as well. One caveat with the C—C bond or linkage is that depending on the particular starting compound structure and the substituents or groups attached to the halogenated phenol ring via the C—C bond, the C—C bond or linkage may or may not be generally cleaved during or following the dehalogenation reaction (see below). […] However, other compounds do become cleaved. It is important to note that whether a C—C bond of a particular starting compound is “cleavable,” or becomes cleaved, may not be all-or-nothing (i.e., the C—C bond may be considered non-cleavable even though a small or minute amount of cleavage may occur, and vice versa). Thus, the amount or percentage of cleavage may be partial with the alternatively cleaved or non-cleaved product being possibly undetected or minute. […]

[3] = Spontaneous dehalogenation and ether cleavage in buffered aqueous solution exposed to sunlight; type: physicochemical; conditions: about 1 mM in carbonate buffer (pH 8.0), exposed to sunlight for about one hour; clear yellow/orange solution formed
Source text: In contrast to reductive deiodination, spontaneous dehalogenation (e.g., deiodination) of a halogentated phenol ring in the presence of an oxidizing agent(s) and/or free radical(s) with cleavage of a chemical linkage, such as an ether linkage, etc., between the phenol ring and a conjugated compound has not been described. According to the present invention, cleavage of the ether linkage between the aromatic rings of thyroid hormone may form visibly colored quinone and iodine-containing products in buffered aqueous solutions in vitro, and this ether cleavage reaction may be accelerated under basic pH conditions and with exposure to ionizing radiation or light. These conditions favor the increased formation of oxidizing agents and/or free radicals, which are believed to promote the reaction. […] A quinone and an iodotyrosine product are also formed by cleavage of the ether linkage during the reaction. According to embodiments of the present invention, a spontaneous reaction of dehalogenation and cleavage of a chemical bond is proposed for the targeted delivery and release of a drug compound at or to sites of inflammation or disease. This spontaneous reaction is further proposed as a basis for scavenging free radicals and/or oxidative agents (FROS) as well as for the creation of a detectable compound(s) that may be used for diagnostic purposes.

SMILES: Oc1c(I)cc(Oc2c[nH]c3ccc(I)cc23)cc1I [Example 4, 5-Iodo-Indolyl-3′,5′-Diiodo-4′-hydroxyl-p-Phenol Ether]
- radio-opaque tumor regions or foci by X-ray (formation and deposit of indigo-like product in oxidative tumor tissues) (spontaneous tumors): radio-opaque tumor regions or foci
- X-ray detection at sites of wound or injury [1]: strong detection was observed

- cleavage of C—C bond with the dehalogenation reaction [2]: generally not to be cleaved
SMILES: N[C@@H](Cc1ccc(O)c(I)c1)C(=O)O [MIT, 3-iodo-4-hydroxy-L-phenylalanine]

SMILES: N[C@@H](Cc1cc(I)c(Oc2cc(I)c(O)c(I)c2)c(I)c1)C(=O)O [thyroxine]
- cleavage of ether linkage with release of iodide [3]: the ether linkage is broken spontaneously
